The record followed here is patent US5130323A, “Pyrrolidine derivatives” (Fujisawa Pharmaceutical Co., Ltd., priority 1988, dated 1992).

Molecules are shown by their SMILES.

One test addresses T1, TXA2 synthetase (Homo sapiens, UniProt P24557).
T1 construct: human platelet microsome; purchased Ran Biochem, Israel; host or cells: human platelet microsomes, aspirin treated (APM)
T1 sequence (P24557 1-533): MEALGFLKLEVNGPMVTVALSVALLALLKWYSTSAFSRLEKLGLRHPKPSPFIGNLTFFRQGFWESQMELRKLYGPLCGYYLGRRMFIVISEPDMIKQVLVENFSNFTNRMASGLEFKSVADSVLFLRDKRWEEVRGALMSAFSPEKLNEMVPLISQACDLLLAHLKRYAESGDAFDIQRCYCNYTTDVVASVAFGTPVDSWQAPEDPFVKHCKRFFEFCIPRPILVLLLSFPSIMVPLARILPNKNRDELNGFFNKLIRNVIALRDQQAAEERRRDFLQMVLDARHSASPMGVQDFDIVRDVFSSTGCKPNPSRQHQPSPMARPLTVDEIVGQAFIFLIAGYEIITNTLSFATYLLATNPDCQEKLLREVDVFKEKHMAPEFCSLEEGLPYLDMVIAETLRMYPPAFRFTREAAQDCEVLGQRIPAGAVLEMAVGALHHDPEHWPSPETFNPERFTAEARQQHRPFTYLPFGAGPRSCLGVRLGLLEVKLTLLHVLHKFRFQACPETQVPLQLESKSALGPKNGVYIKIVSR
The test is described as follows: Inhibition of TXA2 synthetase. In kind it is biochemical. Conditions: aspirin treated human platelet microsome, PGH2 as substrate, 25° C., TXB2 measured by radioimmunoassay; read-out: IC50 (Inhibition concentration of TXB2 generation by 50%). As for the experimental part: Aspirin treated human platelet microsome APM, Ran Biochem, Israel) was used as a source of TXA2 synthetase. APM was suspended in 50 mM Tris/100 mM NaCl buffer (pH 7.5). 10 μl of test compound solution was added to 90 μl of APM suspension and incubated at 25° C. for 3 min. And then, 2 μl of PGH2 (10 μg/ml in aceton, Ran Biochem.) was added. After 3-min incubation period, the reaction was terminated by adding 10 μl of FeCl2 solution (25 mM in H2 O), and set aside at room temperature for 15 min and then on ice. The reaction mixture was centrifuged at 10000 rpm for 5 min at 4° C. TXB2 in the supernatant was measured by radioimmunoassay. IC50 (Inhibition concentration of TXB2 generation by 50%) were graphically determined.

Test [1] relates to human platelet aggregation induced by U46619. The test is described as follows: Inhibition of human platelet aggregation induced by U46619. The following applies: human platelet rich plasma, U46619 final 1.0 μM, 37° C.; read-out: IC50 (Inhibition concentration of platelet aggregation by 50%). The class given is cell-based. As for the experimental part: In the following test, the used 9,11-methanoepoxy PGH2 (U46619) is characterized pharmacologically as TXA2 mimetic agent and widely used for evaluating TXA2 antagonism of test compounds (for example, vide The Journal of Pharmacology and Experimental Therapeutics Vol. 234, pp 435-441).
Human blood was obtained from healthy male volunteers and mixed with 3.8% (w/v) sodium citrate in a ratio of 9:1. Platelet rich plasma (PRP) was prepared from the citrated blood by centrifugation at 150×g for 15 min. Platelet aggregation in PRP was studied photometrically using an aggregometer (NKK HAEMATRACER 1 . To the 225 μl of PRP, 25 μl of test compound solution was added, and then stirred at 1000 rpm for 2 min at 37° C. To the solution, 5 μl of U46619 (final 1.0 μM) was added as an aggregating inducer. IC50 (Inhibition concentration of platelet aggregation by 50% were determined graphically.

On to `O=C(O)CCC/C=C\[C@@H]1C[C@@H](NS(=O)(=O)c2ccc(Cl)cc2)CN1Cc1cccnc1` [test compound (1), (2S,4R)-2-[(Z)-5-Carboxy-1-pentenyl]-4-(4-chlorophenylsulfonylamino)-1-(3-pyridylmethyl)pyrrolidine], for which the results for the IC50 (at TXA2 synthetase; in test [1]) were 46 nM and 270 nM, respectively.
